Tests used:
L-type Ca channel = test: Fluorometric Ca flux in INDO1-loaded GH3 cells; assay type: cell-based; settings: concentrations exceeding 300 AM (highest concentration tested)
Method: (§1) In parallel experiments, SNX-483 was tested for its ability to block voltage-dependent calcium (Ca) and voltage-dependent potassium (K) channels. N- and L-type Ca channel-mediated Ca fluxes were measured fluorometrically using INDO1—loaded IMR32 and GH3 cells, respectively. At concentrations exceeding […] (the highest concentration tested), SNX-483 had no effect on either type of Ca flux.

TTXi Na channels [1] = test: Whole-cell electrophysiological assay of TTXi Na currents in capsaicin-sensitive DRG neurons; assay type: cell-based, Sprague-Dawley rat; settings: membrane potential −55 mV
Excerpt: (§2) . Using a voltage paradigm during which a pair of depolarizing steps to −10 mV are separated by a 4 ms repolarizing step, greater than 90% of TTXs Na currents remain inactivated (FIG. 2B, see below). FIGS. 2C and 2D present voltage families of the TTXi (rapidly recovering Na current) and TTXs (slowly recovering Na current), respectively, generated using this paired-pulse paradigm. TTXs currents (FIG. 2D) were generated by subtracting Na currents obtained following a prepulse to −10 mV from those obtained without a prepulse. The fraction of the total Na current carried by the fast-recovering, TTXi, Na channel varied from cell to cell (generally from 70-90% of Na current is carried by a TTXi conductance in capsaicin-sensitive DRGs). […].
(§3) FIG. 4 presents Na currents obtained before and after exposure of cells to solutions containing 50, 100, 200, 500 and 1000 μM SNX-483 in a capsaicin-sensitive DRG neuron (PAN). […] In the experiments presented in FIG. 4, the capsaicin-sensitive neuron was held at −55 mV and stepped twice to −10 mV at 10 second intervals. Similar results have been obtained in every capsaicin-sensitive PAN tested (n=7). Only about 7% of the TTXi Na current that was blocked by 400 μM SNX-483 recovered within 15 minutes of continuously exchanging the recording chamber with fresh extracellular solution. […]

TTXi Na channels [2] = molecular target: TTXi Na channels (Rattus norvegicus, UniProt Q62968); test: as above; assay type: cell-based, Sprague-Dawley rat; settings: DRG neuron; 400 μM, depolarizing steps from holding potential −80 mV; read-out: block of TTXi Na current
Sequence of TTXi Na channels (Rattus norvegicus, UniProt Q62968) (Q62968 whole entry): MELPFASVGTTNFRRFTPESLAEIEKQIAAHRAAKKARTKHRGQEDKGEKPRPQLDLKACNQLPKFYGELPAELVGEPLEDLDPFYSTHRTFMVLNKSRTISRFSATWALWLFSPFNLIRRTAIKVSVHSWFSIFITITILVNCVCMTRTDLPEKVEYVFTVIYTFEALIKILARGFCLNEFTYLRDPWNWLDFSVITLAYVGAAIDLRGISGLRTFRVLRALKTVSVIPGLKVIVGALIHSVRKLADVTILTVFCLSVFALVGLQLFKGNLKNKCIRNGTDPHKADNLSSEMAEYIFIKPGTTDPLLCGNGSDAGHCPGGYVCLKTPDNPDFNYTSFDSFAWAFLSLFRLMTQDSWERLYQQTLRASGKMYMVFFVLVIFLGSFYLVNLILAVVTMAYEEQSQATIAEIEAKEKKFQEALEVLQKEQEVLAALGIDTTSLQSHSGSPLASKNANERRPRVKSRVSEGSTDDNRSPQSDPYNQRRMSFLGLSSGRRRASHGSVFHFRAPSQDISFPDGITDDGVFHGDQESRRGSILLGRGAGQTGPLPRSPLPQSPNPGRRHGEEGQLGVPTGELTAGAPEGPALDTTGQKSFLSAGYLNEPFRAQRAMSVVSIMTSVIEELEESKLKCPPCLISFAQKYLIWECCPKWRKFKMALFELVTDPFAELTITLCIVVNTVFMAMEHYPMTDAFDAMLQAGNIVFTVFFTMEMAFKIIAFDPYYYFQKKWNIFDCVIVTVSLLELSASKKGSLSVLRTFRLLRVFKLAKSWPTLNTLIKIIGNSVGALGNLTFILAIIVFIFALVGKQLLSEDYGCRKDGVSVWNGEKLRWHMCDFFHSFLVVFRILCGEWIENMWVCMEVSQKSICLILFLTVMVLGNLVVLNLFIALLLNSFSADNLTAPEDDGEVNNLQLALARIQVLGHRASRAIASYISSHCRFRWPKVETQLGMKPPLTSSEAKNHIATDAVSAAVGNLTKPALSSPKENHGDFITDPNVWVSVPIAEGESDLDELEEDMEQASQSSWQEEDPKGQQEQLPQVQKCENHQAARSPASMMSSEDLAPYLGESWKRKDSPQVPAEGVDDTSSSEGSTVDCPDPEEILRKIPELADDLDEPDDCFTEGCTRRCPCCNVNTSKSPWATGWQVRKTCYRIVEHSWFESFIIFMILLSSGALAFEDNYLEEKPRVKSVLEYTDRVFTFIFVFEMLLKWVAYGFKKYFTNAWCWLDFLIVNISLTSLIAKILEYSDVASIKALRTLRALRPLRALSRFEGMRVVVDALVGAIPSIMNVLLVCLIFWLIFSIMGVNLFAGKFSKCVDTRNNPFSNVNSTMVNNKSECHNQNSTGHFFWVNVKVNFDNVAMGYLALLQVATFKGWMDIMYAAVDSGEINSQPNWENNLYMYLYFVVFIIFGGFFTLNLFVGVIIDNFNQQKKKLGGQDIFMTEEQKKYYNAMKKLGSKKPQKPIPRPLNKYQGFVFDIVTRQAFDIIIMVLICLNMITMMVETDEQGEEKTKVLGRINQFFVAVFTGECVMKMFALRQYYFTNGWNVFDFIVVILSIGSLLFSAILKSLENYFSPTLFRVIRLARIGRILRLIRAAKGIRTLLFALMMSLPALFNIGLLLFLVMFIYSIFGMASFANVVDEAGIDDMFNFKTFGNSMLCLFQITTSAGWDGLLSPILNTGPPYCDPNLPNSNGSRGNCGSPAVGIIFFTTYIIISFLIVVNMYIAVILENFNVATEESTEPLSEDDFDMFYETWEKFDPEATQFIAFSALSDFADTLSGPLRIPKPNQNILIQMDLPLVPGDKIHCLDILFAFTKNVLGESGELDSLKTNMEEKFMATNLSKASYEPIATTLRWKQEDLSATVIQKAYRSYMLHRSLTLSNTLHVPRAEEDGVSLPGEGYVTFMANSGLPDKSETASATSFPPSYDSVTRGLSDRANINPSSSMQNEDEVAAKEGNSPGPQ
Excerpt: as §2, §3

TTXs Na channels = test: Whole-cell electrophysiological assay of TTXs Na currents in DRG neurons; assay type: cell-based, Sprague-Dawley rat
Excerpt: FIG. 7 illustrates that at a membrane potential of −55 mV, SNX-483 more potently blocks TTXi Na currents than TTXs Na currents. In experiments carried out in support of the present invention, DRGs containing predominantly TTXi Na currents and TTXs currents were superfused sequentially with increasing concentrations of SNX-483. […]
10-20 day old Sprague-Dawley rat pups were euthanized using CO2 or decapitation. Dorsal root ganglia were removed and placed in Dulbecco s Minimum Essential Medium supplemented with 10% (v/v) fetal bovine serum (DMEM). Ganglia were then cut into small pieces and transferred to DMEM containing 2 mg/ml collagenase and incubated for 30 minutes in a 37° C. incubator with 5% CO2 atmosphere. After 15 minutes incubation, the pieces were gently triturated by three passages through a glass capillary pulled to 0.2 mm i.d. The collagenase was then removed by three washes in 10 ml of DMEM. The final resuspension was into DMEM supplemented with 50 ng/ml NGF, 50 I.U./ml penicillin and […] streptomycin. Cells were then transferred onto glass coverslips coated with collagen and placed in a 37° C. incubator as above. […]
TTXs sodium currents can be measured in large DRG neurons or in other cells or cell lines lacking TTXi Na channels. […]

Kv1.4 K channel = molecular target: T1, Kv1.4 K channel (Homo sapiens, UniProt P22459); test: K currents of Shaker subfamily channels expressed in xenopus oocytes; assay type: cell-based; settings: concentrations up to 1 μM
T1 construct: expressed in transfected cells; host or cells: Xenopus oocytes
T1 sequence (P22459 whole entry): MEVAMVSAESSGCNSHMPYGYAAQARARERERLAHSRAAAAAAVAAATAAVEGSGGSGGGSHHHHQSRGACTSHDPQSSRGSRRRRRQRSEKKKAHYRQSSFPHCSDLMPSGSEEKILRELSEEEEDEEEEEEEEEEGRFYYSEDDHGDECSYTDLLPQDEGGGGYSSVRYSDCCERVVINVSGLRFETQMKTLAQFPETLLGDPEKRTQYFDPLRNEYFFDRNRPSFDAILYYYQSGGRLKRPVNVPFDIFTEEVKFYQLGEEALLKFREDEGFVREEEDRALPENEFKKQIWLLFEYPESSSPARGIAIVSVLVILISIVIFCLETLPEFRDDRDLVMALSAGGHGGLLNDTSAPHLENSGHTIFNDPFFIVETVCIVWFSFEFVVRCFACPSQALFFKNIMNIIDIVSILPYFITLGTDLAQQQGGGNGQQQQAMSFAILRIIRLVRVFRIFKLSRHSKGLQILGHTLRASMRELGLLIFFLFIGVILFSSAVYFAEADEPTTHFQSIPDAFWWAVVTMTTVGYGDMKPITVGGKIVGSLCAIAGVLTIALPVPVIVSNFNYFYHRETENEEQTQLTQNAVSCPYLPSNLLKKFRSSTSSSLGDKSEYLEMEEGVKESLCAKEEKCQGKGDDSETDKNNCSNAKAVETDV
Method: (§4) In addition, SNX-483 was evaluated for the ability to inhibit members of the Shaker subfamily of voltage-dependent K channels expressed in xenopus oocytes. At concentrations up to 1 μM, SNX-483 had no effect on K currents mediated by Kv1.1, Kv1.2, Kv1.3 or Kv1.4 K channels.

Kv1.2 K channel = molecular target: T2, Kv1.2 K channel (Homo sapiens, UniProt P16389); test: as above; assay type: cell-based; settings: concentrations up to 1 μM
T2 construct: expressed in transfected cells; host or cells: Xenopus oocytes
T2 sequence (P16389 whole entry): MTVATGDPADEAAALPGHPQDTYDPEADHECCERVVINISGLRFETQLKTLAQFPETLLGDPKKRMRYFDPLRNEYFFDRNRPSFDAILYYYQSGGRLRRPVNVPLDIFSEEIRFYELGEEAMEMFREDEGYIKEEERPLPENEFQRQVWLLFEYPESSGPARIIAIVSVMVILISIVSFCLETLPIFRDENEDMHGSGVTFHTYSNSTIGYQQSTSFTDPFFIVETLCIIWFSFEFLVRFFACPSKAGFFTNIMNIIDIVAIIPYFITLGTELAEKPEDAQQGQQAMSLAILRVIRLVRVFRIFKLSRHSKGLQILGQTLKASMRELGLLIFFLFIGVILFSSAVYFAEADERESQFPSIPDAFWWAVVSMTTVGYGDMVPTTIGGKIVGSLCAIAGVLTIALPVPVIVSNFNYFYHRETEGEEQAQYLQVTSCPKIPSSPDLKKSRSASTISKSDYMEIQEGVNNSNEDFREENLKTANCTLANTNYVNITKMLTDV
Method: as §4

Kv1.1 K channel = molecular target: T3, Kv1.1 K channel (Homo sapiens, UniProt Q09470); test: as above; assay type: cell-based; settings: concentrations up to 1 μM
T3 construct: expressed in transfected cells; host or cells: Xenopus oocytes
T3 sequence (Q09470 whole entry): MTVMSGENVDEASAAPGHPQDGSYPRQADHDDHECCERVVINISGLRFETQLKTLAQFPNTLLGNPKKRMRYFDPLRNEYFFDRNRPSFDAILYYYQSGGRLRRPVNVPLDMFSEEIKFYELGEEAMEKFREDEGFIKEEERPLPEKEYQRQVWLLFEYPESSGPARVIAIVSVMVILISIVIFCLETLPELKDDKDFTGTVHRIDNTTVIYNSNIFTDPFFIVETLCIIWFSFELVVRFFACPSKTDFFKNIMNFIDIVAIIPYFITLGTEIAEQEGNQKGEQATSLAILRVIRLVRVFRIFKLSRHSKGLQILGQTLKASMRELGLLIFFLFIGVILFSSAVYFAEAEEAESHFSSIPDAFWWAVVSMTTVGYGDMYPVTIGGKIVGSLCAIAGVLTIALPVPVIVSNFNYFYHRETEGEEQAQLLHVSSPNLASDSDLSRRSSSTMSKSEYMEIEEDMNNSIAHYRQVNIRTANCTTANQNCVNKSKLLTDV
Method: as §4

Kv1.3 K channel = molecular target: T4, Kv1.3 K channel (Homo sapiens, UniProt P22001); test: as above; assay type: cell-based; settings: concentrations up to 1 μM
T4 construct: expressed in transfected cells; host or cells: Xenopus oocytes
T4 sequence (P22001 whole entry): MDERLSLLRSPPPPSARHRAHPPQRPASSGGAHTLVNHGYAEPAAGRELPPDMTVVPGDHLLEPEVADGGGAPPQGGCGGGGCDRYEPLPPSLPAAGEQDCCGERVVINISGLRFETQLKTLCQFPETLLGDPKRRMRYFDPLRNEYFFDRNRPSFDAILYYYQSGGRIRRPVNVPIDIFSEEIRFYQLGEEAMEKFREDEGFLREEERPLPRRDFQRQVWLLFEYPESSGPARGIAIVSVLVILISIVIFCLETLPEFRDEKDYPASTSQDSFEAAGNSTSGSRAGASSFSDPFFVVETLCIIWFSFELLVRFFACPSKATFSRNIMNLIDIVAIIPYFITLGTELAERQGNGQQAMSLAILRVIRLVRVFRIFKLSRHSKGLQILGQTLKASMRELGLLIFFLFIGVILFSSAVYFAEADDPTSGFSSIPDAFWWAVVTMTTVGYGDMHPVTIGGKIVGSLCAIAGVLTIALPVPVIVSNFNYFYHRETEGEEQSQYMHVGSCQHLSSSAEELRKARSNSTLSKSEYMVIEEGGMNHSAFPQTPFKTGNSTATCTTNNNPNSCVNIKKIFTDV
Method: as §4

N-type Ca channel = molecular target: T5, N-type Ca channel (Homo sapiens, UniProt Q00975); test: Fluorometric Ca flux in INDO1-loaded IMR32 cells; assay type: cell-based; settings: concentrations exceeding 300 AM (highest concentration tested)
T5 construct: endogenous in cells; host or cells: IMR32 cells
Method: as §1

For CCNCC(=O)Nc1c(C)ccc(O)c1C [SNX-483, 2-(ethylamino)-N-(3-hydroxy-2,6-dimethylphenyl) acetamide], the “effect on L-type Ca channel-mediated Ca flux” value (L-type Ca channel) was “no effect”, the “Potency ratio 1/(IC50, TTXi/IC50, TTXs)” value (TTXi Na channels [1]) was 3.1 and the inhibition at 400 µM (TTXi Na channels [2]) was 20%. For the same compound, the “block of TTXs Na currents” value (TTXs Na channels; 400 μM, large capsaicin-insensitive DRG clamped at −55 mV, 16 ms repolarizing step) was “does not block”, the IC50 (TTXs Na channels; membrane potential −55 mV) was 222 ± 12 µM and the “effect on K currents mediated by Kv1.4” value (Kv1.4 K channel) was “no effect”. The “effect on K currents mediated by Kv1.2” value (Kv1.2 K channel) was “no effect”, the “effect on K currents mediated by Kv1.1” value (Kv1.1 K channel) was “no effect” and the “effect on K currents mediated by Kv1.3” value (Kv1.3 K channel) was “no effect”. For the same compound, the “effect on N-type Ca channel-mediated Ca flux” value (N-type Ca channel) was “no effect”.

— patent US6489119B1, “Analgesic screening method and composition” (priority 1996, dated 2002)
